This passage reports MIC90 and Kd results from ChEMBL document CHEMBL3102693 (ACS Med Chem Lett, 2013).

Values after ≈ are worked out from the molar mass of the structure shown.

Assay [1] relates to Mycobacterium tuberculosis. As to the kind of experiment: Antimicrobial activity against Mycobacterium tuberculosis H37Rv after 10 to 14 days by broth microdilution assay. Type of assay: functional. A general note: Broth dilution looks for growth in wells or tubes with falling amounts of substance.
In assay [2] the target is T1, BirA bifunctional protein (Mycobacterium tuberculosis (strain CDC 1551 / Oshkosh), UniProt P96884).
T1 sequence (P96884 whole entry): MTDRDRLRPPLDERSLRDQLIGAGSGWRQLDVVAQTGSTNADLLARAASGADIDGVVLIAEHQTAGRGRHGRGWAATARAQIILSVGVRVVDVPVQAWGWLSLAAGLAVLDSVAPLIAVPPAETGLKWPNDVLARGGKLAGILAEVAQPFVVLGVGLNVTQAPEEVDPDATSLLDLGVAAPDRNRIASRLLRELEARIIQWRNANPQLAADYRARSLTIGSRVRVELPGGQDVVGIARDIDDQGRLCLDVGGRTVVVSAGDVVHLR
Briefly: Inhibition of biotin binding to Mycobacterium tuberculosis BirA by isothermal titration calorimetry. For orientation: Isothermal titration calorimetry measures the heat released or taken up as one component is titrated into another.

By MIC90 is commonly meant an inhibitory concentration at the 90% level, which refers to growth in some studies and to a panel of isolates in others. In the case of `Nc1ncnc2c1ncn2[C@@H]1O[C@H](CNS(=O)(=O)NC(=O)CCCC[C@@H]2SC[C@@H]3NC(=O)N[C@@H]32)[C@@H](O)[C@H]1O`, the MIC90 in assay [1] was 0.78 µM (≈ 0.446 µg/mL).
For orientation: Kd means the concentration at which binding is half-saturated. Compound `Nc1ncnc2c1ncn2[C@@H]1O[C@H](CCS(=O)(=O)NC(=O)CCCC[C@@H]2SC[C@@H]3NC(=O)N[C@@H]32)[C@@H](O)[C@H]1O` showed a Kd in assay [2] of 0.1 nM. The compound also returned an MIC90 in assay [1] of 3.12 µM (≈ 1.78 µg/mL).
On to `Nc1nccc2c1ncn2[C@@H]1O[C@H](COS(=O)(=O)NC(=O)CCCC[C@@H]2SC[C@@H]3NC(=O)N[C@@H]32)[C@@H](O)[C@H]1O`, for which binding in assay [2] was characterised by a dissociation constant (Kd) of 0.04 nM. For the same compound, the MIC90 in assay [1] amounted to 1.56 µM (≈ 0.892 µg/mL).
As to `Nc1nc2ccccc2c2c1ncn2[C@@H]1O[C@H](COS(=O)(=O)NC(=O)CCCC[C@@H]2SC[C@@H]3NC(=O)N[C@@H]32)[C@@H](O)[C@H]1O`, in assay [2], the equilibrium dissociation constant (Kd) is 0.23 nM. This compound had an MIC90 in assay [1] greater than 100 µM.
On to `CC(C)(C)C#Cc1nc(N)c2ncn([C@@H]3O[C@H](COS(=O)(=O)NC(=O)CCCC[C@@H]4SC[C@@H]5NC(=O)N[C@@H]54)[C@@H](O)[C@H]3O)c2n1`, for which the Kd in assay [2] stood at 11 nM. Moreover, in assay [1], the MIC90 was greater than 100 µM.
